{"source": "patent US11890288B2", "about": "“Sulfonamide or sulfinamide compound having effect of inducing BRD4 protein degradation and pharmaceutical use thereof” (MITSUBISHI TANABE PHARMA CORPORATION, priority 2020, dated 2024)", "key": {"[1]": {"test_system": "human prostate cancer LNCaP cells", "assay": "Cytotoxic action on LNCaP cells (WST-8, 96 hr)", "assay_type": "cell-based", "conditions": "96 hr culture", "procedure,_shortened": "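Overnight pre-culture (10% FBS/RPMI1640, 37° C, 5% CO2) → compound from DMSO stock diluted in medium → 96 hr → WST-8 viable count. IC50 = conc. at 50% survival vs untreated, linear interpolation. (+)-JQ1 as positive control.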"}, "BRD4 protein": {"target": "BRD4 protein (Homo sapiens (Human), UniProt O60885)", "assay": "BRD4 protein degradation inducing action in LNCaP cells (immunofluorescence, 6 hr)", "assay_type": "cell-based", "conditions": "anti-BRD4 fluorescence intensity", "procedure,_shortened": "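Read-out is BRD4 immunofluorescence intensity (560/572 nm) after 6 hr compound treatment of LNCaP cells in 10% FBS/RPMI1640, with fixation, permeabilization and anti-BRD4 staining. Linear interpolation between the two concentrations flanking 50% of untreated intensity gives DC50.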"}}}
{"smiles": "COC(=O)C[C@@H]1N=C(c2ccc(-c3cc(C)c(C(=O)N[C@H](C)c4ccc(S(=O)(=O)Nc5ccc(C)c6c(C#N)c[nH]c56)cc4)cc3F)cc2)c2c(sc(C)c2C)-n2c(C)nnc21", "note": "[Example 98, methyl [(6S)-4-(4′-{[(1R)-1-{4-[(3-cyano-4-methyl-1H-indol-7-yl)sulfamoyl]phenyl}ethyl]carbamoyl}-2′-fluoro-5′-methyl[1,1′-biphenyl]-4-yl)-2,3,9-trimethyl-6H-thieno[3,2-f][1,2,4]triazolo[4,3-a][1,4]diazepin-6-yl]acetate]", "values": [{"measurement": "IC50", "setting": "[1]", "value": 0.22, "unit": "nM"}, {"measurement": "DC50", "setting": "BRD4 protein", "value": 0.098, "unit": "nM"}]}
{"smiles": "COC(=O)C[C@@H]1N=C(c2ccc(-c3ccc(C(=O)N[C@H](C)c4ccc(S(=O)(=O)Nc5ccc(C)c6c(C#N)c[nH]c56)cc4)c(F)c3F)cc2)c2c(sc(C)c2C)-n2c(C)nnc21", "note": "[Example 99, methyl [(6S)-4-(4′-{[(1R)-1-{4-[(3-cyano-4-methyl-1H-indol-7-yl)sulfamoyl]phenyl}ethyl]carbamoyl}-2′,3′-difluoro[1,1′-biphenyl]-4-yl)-2,3,9-trimethyl-6H-thieno[3,2-f][1,2,4]triazolo[4,3-a][1,4]diazepin-6-yl]acetate]", "values": [{"measurement": "IC50", "setting": "[1]", "value": 0.14, "unit": "nM"}, {"measurement": "DC50", "setting": "BRD4 protein", "value": 0.091, "unit": "nM"}]}
{"smiles": "COC(=O)C[C@@H]1N=C(c2ccc(-c3ccc(C(=O)NCCc4ccc(S(=O)(=O)Nc5ccc(C)c6c(C#N)c[nH]c56)cc4)c(F)c3F)cc2)c2c(sc(C)c2C)-n2c(C)nnc21", "note": "[Example 100, methyl [(6S)-4-{4′-[(2-{4-[(3-cyano-4-methyl-1H-indol-7-yl)sulfamoyl]phenyl}ethyl)carbamoyl]-2′,3′-difluoro[1,1′-biphenyl]-4-yl}-2,3,9-trimethyl-6H-thieno[3,2-f][1,2,4]triazolo[4,3-a][1,4]diazepin-6-yl]acetate]", "values": [{"measurement": "IC50", "setting": "[1]", "value": 0.16, "unit": "nM"}, {"measurement": "DC50", "setting": "BRD4 protein", "value": 0.085, "unit": "nM"}]}
{"smiles": "COC(=O)C[C@@H]1N=C(c2ccc(-c3cnc(C(=O)NCc4ccc(S(=O)(=O)Nc5ccc(C)c6c(C#N)c[nH]c56)cc4)cc3C)cc2)c2c(sc(C)c2C)-n2c(C)nnc21", "note": "[Example 101, methyl [(6S)-4-(4-{6-[({4-[(3-cyano-4-methyl-1H-indol-7-yl)sulfamoyl]phenyl}methyl)carbamoyl]-4-methylpyridin-3-yl}phenyl)-2,3,9-trimethyl-6H-thieno[3,2-f][1,2,4]triazolo[4,3-a][1,4]diazepin-6-yl]acetate]", "values": [{"measurement": "IC50", "setting": "[1]", "value": 0.27, "unit": "nM"}, {"measurement": "DC50", "setting": "BRD4 protein", "value": 0.15, "unit": "nM"}]}
{"smiles": "COC(=O)C[C@@H]1N=C(c2ccc(-c3cnc(C(=O)NCCc4ccc(S(=O)(=O)Nc5ccc(C)c6c(C#N)c[nH]c56)cc4)cn3)cc2)c2c(sc(C)c2C)-n2c(C)nnc21", "note": "[Example 102, methyl [(6S)-4-(4-{5-[(2-{4-[(3-cyano-4-methyl-1H-indol-7-yl)sulfamoyl]phenyl}ethyl)carbamoyl]pyrazin-2-yl}phenyl)-2,3,9-trimethyl-6H-thieno[3,2-f][1,2,4]triazolo[4,3-a][1,4]diazepin-6-yl]acetate]", "values": [{"measurement": "IC50", "setting": "[1]", "value": 0.071, "unit": "nM"}, {"measurement": "DC50", "setting": "BRD4 protein", "value": 0.036, "unit": "nM"}]}
{"smiles": "COC(=O)C[C@@H]1N=C(c2ccc(-c3cnc(C(=O)N[C@H](C)c4ccc(S(=O)(=O)Nc5ccc(C)c6c(C#N)c[nH]c56)cc4)cn3)cc2)c2c(sc(C)c2C)-n2c(C)nnc21", "note": "[Example 103, methyl {(6S)-4-[4-(5-{[(1R)-1-{4-[(3-cyano-4-methyl-1H-indol-7-yl)sulfamoyl]phenyl}ethyl]carbamoyl}pyrazin-2-yl)phenyl]-2,3,9-trimethyl-6H-thieno[3,2-f][1,2,4]triazolo[4,3-a][1,4]diazepin-6-yl}acetate]", "values": [{"measurement": "IC50", "setting": "[1]", "value": 0.067, "unit": "nM"}, {"measurement": "DC50", "setting": "BRD4 protein", "value": 0.03, "unit": "nM"}]}
{"smiles": "CCc1ccc(NS(=O)(=O)c2ccc(CNC(=O)c3cnc(-c4ccc(C5=N[C@@H](CC(=O)OC)c6nnc(C)n6-c6sc(C)c(C)c65)cc4)cn3)cc2)c2[nH]cc(C#N)c12", "note": "[Example 105, methyl [(6S)-4-(4-{5-[({4-[(3-cyano-4-ethyl-1H-indol-7-yl)sulfamoyl]phenyl}methyl)carbamoyl]pyrazin-2-yl}phenyl)-2,3,9-trimethyl-6H-thieno[3,2-f][1,2,4]triazolo[4,3-a][1,4]diazepin-6-yl]acetate]", "values": [{"measurement": "IC50", "setting": "[1]", "value": 0.13, "unit": "nM"}, {"measurement": "DC50", "setting": "BRD4 protein", "value": 0.054, "unit": "nM"}]}
{"smiles": "CCc1ccc(NS(=O)(=O)c2ccc(CCNC(=O)c3cnc(-c4ccc(C5=N[C@@H](CC(=O)OC)c6nnc(C)n6-c6sc(C)c(C)c65)cc4)cn3)cc2)c2[nH]cc(C#N)c12", "note": "[Example 107, methyl [(6S)-4-(4-{5-[(2-{4-[(3-cyano-4-ethyl-1H-indol-7-yl)sulfamoyl]phenyl}ethyl)carbamoyl]pyrazin-2-yl}phenyl)-2,3,9-trimethyl-6H-thieno[3,2-f][1,2,4]triazolo[4,3-a][1,4]diazepin-6-yl]acetate]", "values": [{"measurement": "IC50", "setting": "[1]", "value": 0.26, "unit": "nM"}, {"measurement": "DC50", "setting": "BRD4 protein", "value": 0.046, "unit": "nM"}]}
{"smiles": "CCc1ccc(NS(=O)(=O)c2ccc(CNC(=O)c3ccc(-c4ccc(C5=N[C@@H](CC(=O)OC)c6nnc(C)n6-c6sc(C)c(C)c65)cc4)cn3)cc2)c2[nH]cc(C#N)c12", "note": "[Example 108, methyl [(6S)-4-(4-{6-[({4-[(3-cyano-4-ethyl-1H-indol-7-yl)sulfamoyl]phenyl}methyl)carbamoyl]pyridin-3-yl}phenyl)-2,3,9-trimethyl-6H-thieno[3,2-f][1,2,4]triazolo[4,3-a][1,4]diazepin-6-yl]acetate]", "values": [{"measurement": "IC50", "setting": "[1]", "value": 0.23, "unit": "nM"}, {"measurement": "DC50", "setting": "BRD4 protein", "value": 0.069, "unit": "nM"}]}
{"smiles": "CCc1ccc(NS(=O)(=O)c2ccc([C@@H](C)NC(=O)c3ccc(-c4ccc(C5=N[C@@H](CC(=O)OC)c6nnc(C)n6-c6sc(C)c(C)c65)cc4)cn3)cc2)c2[nH]cc(C#N)c12", "note": "[Example 109, methyl {(6S)-4-[4-(6-{[(1R)-1-{4-[(3-cyano-4-ethyl-1H-indol-7-yl)sulfamoyl]phenyl}ethyl]carbamoyl}pyridin-3-yl)phenyl]-2,3,9-trimethyl-6H-thieno[3,2-f][1,2,4]triazolo[4,3-a][1,4]diazepin-6-yl}acetate]", "values": [{"measurement": "IC50", "setting": "[1]", "value": 0.36, "unit": "nM"}, {"measurement": "DC50", "setting": "BRD4 protein", "value": 0.082, "unit": "nM"}]}
{"smiles": "CCc1ccc(NS(=O)(=O)c2ccc(CCNC(=O)c3ccc(-c4ccc(C5=N[C@@H](CC(=O)OC)c6nnc(C)n6-c6sc(C)c(C)c65)cc4)cn3)cc2)c2[nH]cc(C#N)c12", "note": "[Example 110, methyl [(6S)-4-(4-{6-[(2-{4-[(3-cyano-4-ethyl-1H-indol-7-yl)sulfamoyl]phenyl}ethyl)carbamoyl]pyridin-3-yl}phenyl)-2,3,9-trimethyl-6H-thieno[3,2-f][1,2,4]triazolo[4,3-a][1,4]diazepin-6-yl]acetate]", "values": [{"measurement": "IC50", "setting": "[1]", "value": 0.28, "unit": "nM"}, {"measurement": "DC50", "setting": "BRD4 protein", "value": 0.063, "unit": "nM"}]}
{"smiles": "CCc1ccc(NS(=O)(=O)c2ccc(CNC(=O)c3ccc(-c4ccc(C5=N[C@@H](CC(=O)OC)c6nnc(C)n6-c6sc(C)c(C)c65)cc4)cc3F)cc2)c2[nH]cc(C#N)c12", "note": "[Example 112, methyl [(6S)-4-{4′-[({4-[(3-cyano-4-ethyl-1H-indol-7-yl)sulfamoyl]phenyl}methyl)carbamoyl]-3′-fluoro[1,1′-biphenyl]-4-yl}-2,3,9-trimethyl-6H-thieno[3,2-f][1,2,4]triazolo[4,3-a][1,4]diazepin-6-yl]acetate]", "values": [{"measurement": "IC50", "setting": "[1]", "value": 0.44, "unit": "nM"}, {"measurement": "DC50", "setting": "BRD4 protein", "value": 0.25, "unit": "nM"}]}
{"smiles": "CCc1ccc(NS(=O)(=O)c2ccc(CNC(=O)c3ccc(-c4ccc(C5=N[C@@H](CC(=O)OC)c6nnc(C)n6-c6sc(C)c(C)c65)cc4)cc3Cl)cc2)c2[nH]cc(C#N)c12", "note": "[Example 113, methyl [(6S)-4-{3′-chloro-4′-[({4-[(3-cyano-4-ethyl-1H-indol-7-yl)sulfamoyl]phenyl}methyl)carbamoyl][1,1′-biphenyl]-4-yl}-2,3,9-trimethyl-6H-thieno[3,2-f][1,2,4]triazolo[4,3-a][1,4]diazepin-6-yl]acetate]", "values": [{"measurement": "IC50", "setting": "[1]", "value": 0.3, "unit": "nM"}, {"measurement": "DC50", "setting": "BRD4 protein", "value": 0.33, "unit": "nM"}]}
